The results in this text go back to patent US20230286973A1, “PROTEIN SECRETION INHIBITORS” (KEZAR LIFE SCIENCES, priority 2020, published 2023).

Several values for one entry are separate records, joined by “and”; a condition that tells them apart may be missing. Equal values may be shown once. Read-outs that look alike come from different tables or passages of the source. Bounds are passed on as bounds.

In series [1] the test system is PD1-ss+10aa/Gaussia Luciferase. Kind of series: Dox-Induced PD1-ss-Gluc Assay. It is filed as cell-based. The conditions noted are these: 24 hr Dox induction, 293FRT/TO cells, read-out: 24 hr Dox Inducible PD1ssGluc 293FRT/TO: Mean IC50. The source says: Flp-In 293 T-REx™ cells were transfected with pcDNA™5/FRT/TO plasmid inserted with cDNA encoding Gaussia Luciferase fused to the 3′ end of cDNA encoding PD1 signal sequence plus 10 amino acids (N-[…]-C) (SEQ ID NO: 1). Transfected cells were selected for resistance to the selectable markers Hygromycin and Blasticidin to create a stable cell line that contained the PD1-ss+10aa/Gaussia Luciferase cDNA insert whose expression was regulated under the T-REx™ system. The day before assay, cells were trypsinized and plated in 384-well tissue culture plates. The next day, compound dilutions in DMSO/media containing doxycycline were added to the wells and incubated at 37° C., 5% CO2.
(§1) For chemical structures that include one or more stereoisomers, but are illustrated without indicating stereochemistry, the assay data refers to a mixture of stereoisomers.

The subject of series [2] is IL-2-FL/Gaussia Luciferase. The series is described as follows: Dox Induced IL2-FL-Gluc Assay. It is filed as cell-based. The conditions noted are these: for IC50: 24 hr Dox induction, 293FRT/TO cells, read-out: 24 hr Dox Inducible IL2FLGluc 293FRT/TO: Mean IC50; for 24 hr Dox Inducible IL2FLGluc 293FRT/TO: IL2/PD1: ratio of IL2FLGluc IC50 to PD1ssGluc IC50.
Excerpt: (§2) Flp-In 293 T-REx™ cells were transfected with pcDNA™5/FRT/TO plasmid inserted with cDNA encoding Gaussia Luciferase fused to the 3′ end of cDNA encoding full length IL-2 (amino acids 1-153). Transfected cells were selected for resistance to the selectable markers Hygromycin and Blasticidin to create a stable cell line that contained the IL-2-FL/Gaussia Luciferase cDNA insert whose expression was regulated under the T-REx™ system. The day before assay, cells were trypsinized and plated in 384-well tissue culture plates. The next day, compound dilutions in DMSO/media containing doxycycline were added to the wells and incubated at 37° C., 5% CO2.
as §1

Series [3] deals with multiple myeloma cell line NCI-H929. Kind of series: H929 Cell Viability Assay. It is filed as cell-based, human. The following applies: NCI-H929 cells, Celltiter-Glo. As to the method: The human multiple myeloma cell line NCI-H929 was cultured in Advanced RPMI 1640 media (Gibco®) supplemented with 6% fetal bovine serum, 2 mM Glutamine, and 1× Penicillin/Streptomycin. On the day of assay, cells were resuspended in RPMI 1640 media supplemented with 10% fetal bovine serum, 2 mM Glutamine, and 1× Penicillin/Streptomycin and plated in 384-well tissue culture plates and treated with compound dilutions in DMSO/media. Plates were incubated at 37° C., 5% CO2 for 48 hours. After 48 hours, Celltiter-Glo® (Promega) was added to each well and luciferase signal was quantified using Tecan Infinite M1000 Pro for cell viability determination.
as §1

In series [4] the test system is multiple myeloma cell line U266B1. Kind of series: U266 Cell Viability Assay. The format is cell-based, human. The following applies: Homo sapiens, U-266, 48 h, U266B1 cells, Celltiter-Glo. The procedure:
The human multiple myeloma cell line U266B1 was cultured in RPMI 1640 media supplemented with 10% fetal bovine serum, 2 mM Glutamine, and 1× Penicillin/Streptomycin. Cells were plated in 384-well tissue culture plates and treated with compound dilutions in DMSO/media. Plates were incubated at 37° C., 5% CO2 for 48 hours. After 48 hours, Celltiter-Glo® (Promega) was added to each well and luciferase signal was quantified using Tecan Infinite M1000 Pro for cell viability determination.
as §1

Series [5] is described as follows: Liver Microsome Stability Assay (rat). The following applies: rat liver microsomes, with NADPH, 1.0 uM compound.
Procedure: (§3) Stability of a compound was assessed in the presence of liver microsomes from various sources—mouse, rat, monkey and human liver microsomes. 1.0 uM compound, 0.4% DMSO in 0.1 M Potassium Phosphate with 1.0 mg/mL liver microsomes, were incubated at 37° C. with or without 1 mM NADPH. The samples were quenched at 0, and 30 minutes.
Series [6] in a line: Liver Microsome Stability Assay (mouse). The following applies: mouse liver microsomes, with NADPH, 1.0 uM compound.
Procedure: as §3
Series [7] in a line: Liver Microsome Stability Assay (human). The conditions noted are these: human liver microsomes, with NADPH, 1.0 uM compound.
Procedure: as §3
A short description of series [8]: Liver Microsome Stability Assay (monkey). The following applies: monkey liver microsomes, with NADPH, 1.0 uM compound.
Procedure: as §3
Series [9] has as its system TNFα-FL/Gaussia Luciferase. Kind of series: Dox Induced TNFα-FL-Gluc Assay. The format is cell-based.
Excerpt: as §2, with “TNFα” for “IL-2”, “1-233).” for “1-153).”, “TNFα-FL/Gaussia” for “IL-2-FL/Gaussia”
as §1

Setting [10] is: '<=>' given where both are I.A.

On to `O=C(O)c1ccc(N2CCC[C@@H]2c2csc(NC(=O)c3cccn3Cc3ccncc3)n2)cc1` [Compound A13], for which the IC50 in series [1] is 20.7 µM; in [2] it was > 25 µM. In addition, the “24 hr Dox Inducible IL2FLGluc 293FRT/TO: IL2/PD1” value in series [2] was >1.2. The EC50 in series [3] (Homo sapiens, NCI-H929, 48 h) was > 25 µM; in [4], > 25 µM. Moreover, the “Liver Microsome Stability (Multiple Species): Rat - % Remaining after 30 min w/NADPH” value in [5] is on record as 5.37%. The “Liver Microsome Stability (Multiple Species): Mouse - % Remaining after 30 min w/NADPH” value in [6] is 6.8%. For the same molecule, in series [7], the “Liver Microsome Stability (Multiple Species): Human - % Remaining after 30 min w/NADPH” value came out at 1.91%. In addition, in [8], the “Liver Microsome Stability (Multiple Species): Monkey - % Remaining after 30 min w/NADPH” value is 0.39%.

For the molecule `N#Cc1cccc(Cn2cccc2C(=O)Nc2nc([C@H]3CCCN3c3ccccc3)cs2)c1` [Compound C49, (R)-1-(3-cyanobenzyl)-N-(4-(1-phenylpyrrolidin-2-yl)thiazol-2-yl)-1H-pyrrole-2-carboxamide], the IC50 turned out to be 0.909 µM in [1] (mean) and 1.64 µM in [2] (mean). The “24 hr Dox Inducible IL2FLGluc 293FRT/TO: IL2/PD1” value in series [2] (setting [10]) was determined as 1.8. The EC50 in series [3] (Homo sapiens, NCI-H929, 48 h) was > 25 µM; in series [4] it was > 25 µM. Also, the “Liver Microsome Stability (Multiple Species): Rat - % Remaining after 30 min w/NADPH” value in [5] is listed as 2.9%. The “Liver Microsome Stability (Multiple Species): Mouse - % Remaining after 30 min w/NADPH” value in series [6] is 29.1%. The “Liver Microsome Stability (Multiple Species): Human - % Remaining after 30 min w/NADPH” value in series [7] is 1.94%. Further, the “Liver Microsome Stability (Multiple Species): Monkey - % Remaining after 30 min w/NADPH” value in series [8] is given as 9.17%.

As to `C#CCn1cccc1C(=O)Nc1nc([C@H]2CCCN2c2ccccc2)cs1` [Compound C33, (R)-N-(4-(1-phenylpyrrolidin-2-yl)thiazol-2-yl)-1-(prop-2-yn-1-yl)-1H-pyrrole-2-carboxamide], the IC50 in [1] (mean) turned out to be 9.67 µM; in series [2] (mean), 6.05 µM. Also, the “24 hr Dox Inducible IL2FLGluc 293FRT/TO: IL2/PD1” value in series [2] (setting [10]) was 0.63. Besides, the EC50 was 23.8 µM in series [3] (Homo sapiens, NCI-H929, 48 h) and > 25 µM in series [4]. Further, in series [5], the “Liver Microsome Stability (Multiple Species): Rat - % Remaining after 30 min w/NADPH” value turned out to be 20.3%. Further, the “Liver Microsome Stability (Multiple Species): Mouse - % Remaining after 30 min w/NADPH” value in series [6] is 41.1%. Moreover, the “Liver Microsome Stability (Multiple Species): Human - % Remaining after 30 min w/NADPH” value in [7] came to 54.7%. The “Liver Microsome Stability (Multiple Species): Monkey - % Remaining after 30 min w/NADPH” value in series [8] stood at 65%.

Consider `CC1=NC(C)(/C=C/c2csc(NC(=O)c3cccn3Cc3ccncc3)n2)CO1` (centres unmarked) [Compound B16], for which the IC50 in series [1] is 3.99 µM; in [2], > 25 µM. Moreover, the “24 hr Dox Inducible IL2FLGluc 293FRT/TO: IL2/PD1” value in series [2] is >6.3. The EC50 in [3] (Homo sapiens, NCI-H929, 48 h) was > 25 µM; in [4], > 25 µM. Moreover, the “Liver Microsome Stability (Multiple Species): Rat - % Remaining after 30 min w/NADPH” value in series [5] stood at 137%. The “Liver Microsome Stability (Multiple Species): Mouse - % Remaining after 30 min w/NADPH” value in series [6] turned out to be 196%. For the same molecule, in series [8], the “Liver Microsome Stability (Multiple Species): Monkey - % Remaining after 30 min w/NADPH” value turned out to be 110%.

For `CC(C)c1ccc(/C=C/c2csc(NC(=O)c3cccn3Cc3ccncc3)n2)nc1` [Compound E57, (E)-N-(4-(2-(5-isopropylpyridin-2-yl)vinyl)thiazol-2-yl)-1-(pyridin-4-ylmethyl)-1H-pyrrole-2-carboxamide], the IC50 is 0.00967 µM in [1] (mean) and 2.16 µM in series [2] (mean). In series [2] (setting [10]), the “24 hr Dox Inducible IL2FLGluc 293FRT/TO: IL2/PD1” value came to 220. Moreover, the EC50 in series [3] (Homo sapiens, NCI-H929, 48 h) was determined as 6.9 µM; in [4], 9.51 µM.

For the molecule `CO[C@@H](CC#N)Cn1cccc1C(=O)Nc1nc([C@H]2CCCN2c2ccccc2)cs1` [Compound C97, 1-((S)-3-cyano-2-methoxypropyl)-N-(4-((R)-1-phenylpyrrolidin-2-yl)thiazol-2-yl)-1H-pyrrole-2-carboxamide], the IC50 is 3 µM and 4.65 µM in [1] (mean); > 25 µM in series [9] (24 hr Dox induction, 293FRT/TO cells, mean, read-out: 24 hr Dox Inducible TNFaFLGluc 293FRT/TO: Mean IC50). The “24 hr Dox Inducible TNFaFLGluc 293FRT/TO: TNF/PD1” value in series [9] (ratio of TNFaFLGluc IC50 to PD1ssGluc IC50, '<=>' given where both are I.A.) was > 8.34 and > 5.37. In [2] (setting [10]), the “24 hr Dox Inducible IL2FLGluc 293FRT/TO: IL2/PD1” value is 2.1 and > 3.6. Moreover, the 50% effective concentration (EC50) in series [3] (Homo sapiens, NCI-H929, 48 h) was 25 µM; in [3] (48 hr), 23.6 µM; in series [4], > 25 µM. In addition, the “Liver Microsome Stability (Multiple Species): Rat - % Remaining after 30 min w/NADPH” value in [5] is 5.97% and 7.43%. Also, the “Liver Microsome Stability (Multiple Species): Mouse - % Remaining after 30 min w/NADPH” value in series [6] was 3.9% and 3.33%. The “Liver Microsome Stability (Multiple Species): Human - % Remaining after 30 min w/NADPH” value in series [7] was 4.81% and 6.52%.

Turning to `O=C(Nc1nc([C@H]2CCCN2c2ccc(OC3CCNCC3)cc2)cs1)c1cccn1Cc1ccncc1` [Compound A6, (R)-N-(4-(1-(4-(piperidin-4-yloxy)phenyl)pyrrolidin-2-yl)thiazol-2-yl)-1-(pyridin-4-ylmethyl)-1H-pyrrole-2-carboxamide], in series [5], the “Liver Microsome Stability (Multiple Species): Rat - % Remaining after 30 min w/NADPH” value was determined as 44.8%. Besides, the “Liver Microsome Stability (Multiple Species): Mouse - % Remaining after 30 min w/NADPH” value in series [6] is on record as 37.4%. The “Liver Microsome Stability (Multiple Species): Human - % Remaining after 30 min w/NADPH” value in series [7] amounted to 25.7%. The “Liver Microsome Stability (Multiple Species): Monkey - % Remaining after 30 min w/NADPH” value in [8] was determined as 25.4%.

For `CN1C(=O)CCCC1/C=C/c1csc(NC(=O)c2cccn2Cc2ccncc2)n1` (centres unmarked) [Compound B19, (E)-N-(4-(2-(1-methyl-6-oxopiperidin-2-yl)vinyl)thiazol-2-yl)-1-(pyridin-4-ylmethyl)-1H-pyrrole-2-carboxamide], the “Liver Microsome Stability (Multiple Species): Rat - % Remaining after 30 min w/NADPH” value in series [5] is on record as 1.18%. Further, the “Liver Microsome Stability (Multiple Species): Mouse - % Remaining after 30 min w/NADPH” value in series [6] worked out at 0.83%. In series [7], the “Liver Microsome Stability (Multiple Species): Human - % Remaining after 30 min w/NADPH” value amounted to 0.05%. The “Liver Microsome Stability (Multiple Species): Monkey - % Remaining after 30 min w/NADPH” value in series [8] was found to be 0.03%.

`CC(C)c1cccnc1/C=C/c1csc(NC(=O)c2cccn2Cc2ccncc2)n1` [Compound E56, (E)-N-(4-(2-(3-isopropylpyridin-2-yl)vinyl)thiazol-2-yl)-1-(pyridin-4-ylmethyl)-1H-pyrrole-2-carboxamide]: the IC50 in [1] (mean) worked out at 0.0916 µM; in series [2] (mean), 4.36 µM. Moreover, in series [2] (setting [10]), the “24 hr Dox Inducible IL2FLGluc 293FRT/TO: IL2/PD1” value is 48. Further, the concentration for a half-maximal effect (EC50) in series [3] (Homo sapiens, NCI-H929, 48 h) is 21.5 µM; in series [4], > 25 µM.

For the molecule `O=C(Nc1nc([C@H]2CCCN2c2ccccc2)cs1)c1cccn1Cc1ccnc(F)c1` [Compound E26, (R)-1-((2-fluoropyridin-4-yl)methyl)-N-(4-(1-phenylpyrrolidin-2-yl)thiazol-2-yl)-1H-pyrrole-2-carboxamide], the IC50 worked out at 0.00953 µM in series [1] (mean) and 0.0229 µM in [2] (mean). Further, the “24 hr Dox Inducible IL2FLGluc 293FRT/TO: IL2/PD1” value in [2] (setting [10]) amounted to 2.4. Moreover, the EC50 in [3] (Homo sapiens, NCI-H929, 48 h) was 0.762 µM; in series [4], > 25 µM.
